Structures can show the parent of a compound that is named as a salt.
The compounds below were run on human platelet aggregation (assay: Inhibitory effect on human platelet aggregation (ADP-induced, platelet-rich plasma, aggreometer)). Details: 5×10^8 platelets/ml, ADP final concentration 3 μM, 37° C., 3 min preincubation, read-out: 50% inhibitory concentration (IC50).
Assay type: cell-based
Description: A mixture of blood collected from a human elbow vein and a 3.8% sodium citrate solution in the ratio of 9:1 (v/v) was centrifuged at room temperature to obtain platelet-rich plasma and platelet-poor plasma. Then, the platelet-rich plasma was diluted with the platelet-poor plasma to adjust the number of platelets to 5×10^8 platelets/ml. […] After 3 minutes, 18.75 μl of adenosine 5'-diphosphate (ADP) (final concentration: 3 μM) was added to the mixture and a change in the intensity of transmitted light caused by the aggregation was recorded with the lapse of time with an aggreometer.
For N=C(N)c1ccc(S(=O)(=O)NCCCN2CCN(CC(=O)O)C(=O)C2=O)cc1 [105(2), [4-[3-(4-Amidinobenzenesulfonylamino)propyl]-2,3-dioxopiperazin-1-yl]aceticacid], the IC50 was 950 nM. N=C(N)c1ccc(OCCCN2CCN(CC(=O)O)C(=O)C2=O)cc1 [Example 10, [4-[3-(4-Amidinophenoxy)propyl]-2,3-dioxopiperazin-1yl]acetic acid hydrochloride] gave an IC50 of 5000 nM. N=C(N)c1ccc(OCCCCCN2CCN(CC(=O)O)C(=O)C2=O)cc1 [Example 13] was tested, and the IC50 was 10000 nM. N=C(N)c1ccc(OCCCN2CCN(CCC(=O)O)C(=O)C2=O)cc1 [Example 15] was tested, and the IC50 was 4700 nM. In the case of N=C(N)c1ccc(OCCN2CCN(CCCC(=O)O)C(=O)C2=O)cc1 [Example 16], the IC50 is reported as 2200 nM. For N=C(N)c1ccc(OCCCn2ccn(CC(=O)O)c(=O)c2=O)cc1 [Example 17, [4-[3-(4-Amidinophenoxy)propyl]-1,2,3,4-tetrahydro-2,3-dioxopyrazin-1-yl]acetic acid hydrochloride], the IC50 was 42000 nM. For N=C(N)c1ccc(OCCCCN2CCN(C(C(=O)O)c3ccccc3)C(=O)C2=O)cc1 (stereo not drawn) [Example 19, α-[4-[4-(4-Amidinophenoxy)butyl]-2,3-dioxopiperazin-1yl]-α-phenylacetic acid], the IC50 was 140 nM. With N=C(N)c1ccc(OCCCN2CCN(CC(Cc3ccc4c(c3)OCO4)C(=O)O)C(=O)C2=O)cc1 (stereo not shown) [Example 20, 2-[(1,3-Benzodioxol-5-yl)methyl]-3-[4-[3-(4-amidinophenoxy)propyl]-2,3-dioxopiperazin-1-yl]propionic acid] the IC50 was 900 nM. With N=C(N)c1ccc(OCCCN2CCN(C(CC(=O)O)c3cccnc3)C(=O)C2=O)cc1 (stereo not shown) [Example 58, 3-[4-[3-(4-Amidinophenoxy)propyl]-2,3-dioxopiperazin-1-yl]-3-(pyridin-3-yl)propionic acid] the IC50 was 54 nM. Compound CC(CC(=O)O)N1CCN(CCCOc2ccc(C(=N)N)cc2)C(=O)C1=O (stereo not shown) [Example 59, 3-[4-[3-(4-Amidinophenoxy)propyl]-2,3-dioxopiperazin-1-yl]-3-methylpropionic acid] has an IC50 of 370 nM. For N=C(N)c1ccc(OCCCN2CCN(C(CC(=O)O)c3cccs3)C(=O)C2=O)cc1 (stereo not shown) [Example 61], the IC50 was 120 nM. For N=C(N)c1ccc(OCCCN2CCN(C(CC(=O)O)C(=O)O)C(=O)C2=O)cc1 (stereo not shown) [Example 62, 2-[4-[3-(4-Amidinophenoxy)propyl]-2,3-dioxopiperazin-1-yl]succinic acid], the IC50 was 3200 nM. COc1ccc(C(CC(=O)O)N2CCN(CCCOc3ccc(C(=N)N)cc3)C(=O)C2=O)cc1 (stereo not shown) [Example 64] gave an IC50 of 160 nM. For N=C(N)c1ccc(OCCCN2CCN(C(CC(=O)O)c3ccc(F)cc3)C(=O)C2=O)cc1 (stereo not shown) [Example 65], the IC50 was 290 nM. N=C(N)c1ccc(OCCCN2CCN(C(CC(=O)O)c3ccc4c(c3)OCO4)C(=O)C2=O)cc1 (stereo not shown) [Example 66, 3-[4-[3-(4-Amidinophenoxy)propyl]-2,3-dioxopiperazin-1-yl]-3-(1,3-benzodioxol-5-yl)propionic acid] was tested, and the IC50 was 140 nM. In the case of N=C(N)c1ccc(OCCCN2CCN(C(CC(=O)O)c3ccco3)C(=O)C2=O)cc1 (stereo not shown) [Example 67], the IC50 is reported as 570 nM. Compound N=C(N)c1ccc(OCCCN2CCN(C(CC(=O)O)c3ccc(F)cc3F)C(=O)C2=O)cc1 (stereo not shown) [Example 77] has an IC50 of 140 nM. COc1cccc(C(CC(=O)O)N2CCN(CCCOc3ccc(C(=N)N)cc3)C(=O)C2=O)c1 (stereo not shown) [Example 78] was tested, and the IC50 was 150 nM. N=C(N)c1ccc(OCCCCN2CCN(C(CC(=O)O)c3cccnc3)C(=O)C2=O)cc1 (stereo not shown) [Example 79, 3-[4-[4-(4-Amidinophenoxy)butyl]-2,3-dioxopiperazin-1-yl]-3-(pyridin-3-yl)propionic acid] showed an IC50 of 3500 nM. In the case of CCCCC(CC(=O)O)N1CCN(CCCOc2ccc(C(=N)N)cc2)C(=O)C1=O (stereo not shown) [Example 82, 3-[4-[3-(4-Amidinophenoxy)propyl]-2,3-dioxopiperazin-1-yl]-3-(butyl)propionic acid], the IC50 is reported as 480 nM. N=C(N)c1ccc(OCCCN2CCN(C(CC(=O)O)C3CC3)C(=O)C2=O)cc1 (stereo not shown) [Example 83, 3-[4-[3-(4-Amidinophenoxy)propyl]-2,3-dioxopiperazin-1-yl]-3-(cyclopropyl)propionic acid] showed an IC50 of 1100 nM. For N=C(N)c1ccc(OCCCN2CCN(C(CC(=O)O)c3cccc4ccccc34)C(=O)C2=O)cc1 (stereo not shown) [Example 85], the IC50 was 290 nM. N=C(N)c1ccc(OCCCN2CCN(CC(C(=O)O)c3ccccc3)C(=O)C2=O)cc1 (stereo not shown) [Example 87, 3-[4-[3-(4-Amidinophenoxy)propyl]-2,3-dioxopiperazin-1-yl]-2-phenylpropionic acid] gave an IC50 of 530 nM. CCOC(=O)CC(c1cccnc1)N1CCN(CCCOc2ccc(C(=N)N)cc2)C(=O)C1=O (stereo not shown) [Example 88, Ethyl 3-[4-[3-(4-amidinophenoxy)propyl]-2,3-dioxopiperazin-1yl]-3-(pyridin-3-yl)propionate hydrochloride] was tested, and the IC50 was 3400 nM. N=C(N)c1ccc(C(=O)NCCN2CCN(C(CC(=O)O)c3cccnc3)C(=O)C2=O)cc1 (stereo not shown) [Example 97, 3-[4-[2-(4-Amidinobenzoyl)aminoethyl]-2,3-dioxopiperazin-1yl]-3-(pyridin-3-yl)propionic acid] was tested, and the IC50 was 560 nM. Compound N=C(N)c1ccc(C(=O)NCCN2CCN(CCC(=O)O)C(=O)C2=O)cc1 [Example 99] has an IC50 of 2100 nM. N=C(N)c1ccc(C(=O)NCCCN2CCN(CC(Cc3ccc4c(c3)OCO4)C(=O)O)C(=O)C2=O)cc1 (stereo not shown) [Example 102, 3-[4-[3-(4-Amidinobenzoylamino)propyl]-2,3-dioxopiperazin-1-yl]-2-[(1,3-benzodioxol-5-yl)methyl]-propionic acid] was tested, and the IC50 was 500 nM. N=C(N)c1ccc(C(=O)NCCN2CCN(CC(=O)O)C(=O)C2=O)cc1 [Example 103, [4-[2-(4-Amidinobenzoylamino)ethyl]-2,3-dioxopiperazin-1-yl]acetic acid] was tested, and the IC50 was 1900 nM. N=C(N)c1ccc(C(=O)NCCCN2CCN(CC(=O)O)C(=O)C2=O)cc1 [Example 104, [4-[3-(4-Amidinobenzoylamino)propyl)-2,3-dioxopiperazin-1-yl]acetic acid] gave an IC50 of 800 nM. CC(C)(C)OC(=O)CN1CCN(CCCC(=O)Nc2ccc(C(=N)NC(=O)OCc3ccccc3)cc2)C(=O)C1=O [Example 106, tert-Butyl [4-[4-(4-benzyloxycarbonylamidino-phenylamino) -4-oxobutyl]-2,3-dioxopiperazin-1-yl]acetate] showed an IC50 of 1000 nM.

Each compound was assayed on ddY strain male mice (assay: Acute toxicity (intravenous, mice)). Details: 300 mg/kg, intravenous (tail), physiological saline.
Assay type: in vivo
Description: A solution of the compound of Example 58 in physiological saline was intravenously administered to a group consisting of 5 ddY strain male mice (average body weight: 27.5 g) each, in the tails, whereby the acute toxicity of the compound was investigated. As a result, no mouse died at a dose of the test compound of 300 mg/kg.
For N=C(N)c1ccc(OCCCN2CCN(C(CC(=O)O)c3cccnc3)C(=O)C2=O)cc1 (stereo not shown) [Example 58, 3-[4-[3-(4-Amidinophenoxy)propyl]-2,3-dioxopiperazin-1-yl]-3-(pyridin-3-yl)propionic acid], the “acute toxicity (mortality)” value was “no mouse died”.
